Legend:
Assay type in all cases: cell-based
[1] = system: human HTT C allele (SNP rs362331C/T) mRNA in GM09197 fibroblasts; assay: HTT mRNA, allele-specific RT-PCR in GM09197 fibroblasts, C allele; conditions: for GM 09197 E min 48 Hr C Allele (%): lowest % HTT observed at 0.5 nM to 1000 nM compound; for IC50: Homo sapiens, Fibroblast, 48 hr, C allele HTT mRNA normalized to GAPDH, relative to vehicle
Experimental: (§1) Molecular Biology Toolkit: • qPCR primer probe sets: • RNA input normalization was assessed utilizing human glyceraldehyde 3-phosphate dehydrogenase (hGAPDH) TaqMan assay (ThermoFisher cat #4351370) or Human Cyclophillin ([…]) TaqMan assay (ThermoFisher cat #4351372) • Total HTT detection was assessed utilizing human Htt TaqMan assay (ThermoFisher cat #4331182) • Allele-specific detection of human HTT expression in HD cells containing the SNP rs362331C/T (Exon 50): for each assay, allele-specific probes to detect the SNP variant contained locked nucleic acid bases to improve allele discrimination, as compared to unmodified DNA probes. • 362331-F (331 forward primer) • 362331-R (331 reverse primer) • 362331-C probe: TCC CTC ATC+C+AC TGT GT • 362331-T probe: CTC+A+T+C+T+A+C TGT GT • qPCR was performed using Agpath ID one-step reverse transcriptase polymerase chain reaction (RT-PCR) reagent
(§2) Screening of HD molecules methods: GM09197 and/or GM04022 fibroblasts were cultured in T175 flasks incubated at 37° C. and 5% CO2. Once confluency was reached, the media was removed, the cells were washed with 1×PBS, and cells were dissociated using TrypLE™ Express Enzyme. Media was added to the enzyme and collected into a 15-mL conical tube and centrifuged at 500×g for 5 minutes to pellet the cells. Media and enzyme were aspirated using a serological pipette. Cells were resuspended in fresh media and counted using a Countess 3 Automated Cell Counter. Cells were plated at a density of 15,000 cells/well in a tissue culture-treated polystyrene 96-well dish and incubated at 37° C. and 5% CO2 overnight. The next day, media was removed using an 8-channel aspirator. 200 μL media/well are added back into the plate. The molecules are formulated to 1 mM and are dispensed using a Multidrop™ Pico 8 Digital Dispenser. After a 48-hour incubation with compounds, media was removed from plates, cells were washed with 1×PBS, and cells were lysed in 40 μL per well guanidinium thiocyanate buffer. RNA was isolated and purified in 382-well glass fiber column plates using chaotropic salts. Human mtHTT, wtHTT, and GAPDH mRNA were measured via RT-PCR using the ThermoFisher QuantStudio™ 7 Flex System in 384-well format. Results of HTT levels were normalized to GAPDH mRNA levels. Normalized HTT mRNA levels were expressed relative to vehicle-treated samples to assess fold change after molecule treatment.
(§3) Emin for each compound is the lowest % HTT concentration observed within a compound concentration of 0.5 nM to 1000 nM.

[2] = system: human HTT T allele (SNP rs362331C/T) mRNA in GM09197 fibroblasts; assay: HTT mRNA, allele-specific RT-PCR in GM09197 fibroblasts, T allele; conditions: for IC50: Homo sapiens, Fibroblast, 48 hr, T allele HTT mRNA normalized to GAPDH, relative to vehicle; for Gm09197 Emin 48 hr T Allele (%): lowest % HTT observed at 0.5 nM to 1000 nM compound
Experimental: as §1, §2, §3

[3] = system: human HTT C allele (SNP rs362331C/T) mRNA in GM04022 fibroblasts; assay: HTT mRNA, allele-specific RT-PCR in GM04022 fibroblasts, C allele; conditions: for GM 04022Emin 48 hr C Allele: lowest % HTT observed at 0.5 nM to 1000 nM compound
Experimental: as §1
as §2, with “After a 48-hour incubation with compounds, media was removed from plates, cells were washed with 1×PBS, and cells were lysed in 40 μL per well guanidinium thiocyanate buffer. RNA was isolated and purified in 382-well glass fiber column plates using chaotropic salts.” left out, “Results of HTT levels were normalized to GAPDH mRNA levels. Normalized HTT mRNA levels were expressed relative to vehicle-treated samples to assess fold change after molecule treatment.” left out

[4] = system: human HTT T allele (SNP rs362331C/T) mRNA in GM04022 fibroblasts; assay: HTT mRNA, allele-specific RT-PCR in GM04022 fibroblasts, T allele; conditions: for IC50: Homo sapiens, Fibroblast, 48 hr, T allele HTT mRNA normalized to GAPDH, relative to vehicle; for GM04022 Emin 48 hr T Allele: lowest % HTT observed at 0.5 nM to 1000 nM compound
Experimental: as §1, §2, §3

SMILES | GM 09197 E min 48 Hr C Allele (%) [1] | IC50 [2] | Gm09197 Emin 48 hr T Allele (%) [2] | GM 04022Emin 48 hr C Allele [3] | IC50 [4] | GM04022 Emin 48 hr T Allele [4] | IC50 [1] | IC50 ([3]; Homo sapiens, Fibroblast, 48 hr, C allele HTT mRNA normalized to GAPDH, relative to vehicle)
Cn1cc(NC(=O)c2nc(NC(=O)CCNC(=O)c3cc(NC(=O)c4nccn4C)cn3C)cn2C)cc1C(=O)NCCCC(=O)Nc1cn(C)c(C(=O)NCCC(=O)Nc2cc(C(=O)Nc3cn(C)c(C(=O)NCCC(=O)NCCOCCOCCOCCOCCOCCOCCOCCOCCOCCOCCOCCOCCOCCOCCOCCOc4ccc(NC(=O)c5cc6c(-c7cc(S(C)(=O)=O)ccc7Oc7ccc(F)cc7F)cn(C)c(=O)c6[nH]5)cc4)n3)n(C)c2)n1 [Compound A-2] | A (A>90%) | 32 nM | C (C<80%) | A (A>90%) | > 1000 nM | C (C<80%) | – | –
CC(=O)N1c2ccc(-c3ccn(-c4ccc(OCCOCCOCCOCCOCCOCCOCCOCCOCCNC(=O)CCNC(=O)c5nc(NC(=O)c6cc(NC(=O)CCNC(=O)c7nc(NC(=O)CCCNC(=O)c8cc(NC(=O)c9nc(NC(=O)CCNC(=O)c%10cc(NC(=O)c%11nccn%11C)cn%10C)cn9C)cn8C)cn7C)cn6C)cn5C)cc4)n3)cc2[C@H](Nc2ccc(C#N)cc2)C[C@@H]1C [Compound A-59] | – | > 1000 nM | – | – | – | – | > 1000 nM | –
CCNS(=O)(=O)c1ccc(Oc2ccc(OCCOCCOCCOCCOCCOCCOCCOCCOCCOCCOCCOCCOCCOCCOCCOCCNC(=O)CCNC(=O)c3nc(NC(=O)c4cc(NC(=O)CCNC(=O)c5nc(NC(=O)CCCNC(=O)c6cc(NC(=O)c7nc(NC(=O)CCNC(=O)c8cc(NC(=O)c9nccn9C)cn8C)cn7C)cn6C)cn5C)cn4C)cn3C)cc2F)c(-c2cn(C)c(=O)c3[nH]ccc23)c1 [Compound A-68] | A (A>90%) | 17 nM | C (C<80%) | – | – | – | – | –
CCS(=O)(=O)Nc1ccc(Oc2ccc(F)cc2F)c(-c2cn(C)c(=O)c3[nH]c(C(=O)Nc4ccc(OCCOCCOCCOCCOCCOCCOCCOCCOCCOCCOCCOCCOCCOCCOCCOCCNC(=O)CCNC(=O)c5nc(NC(=O)c6cc(NC(=O)CCNC(=O)c7nc(NC(=O)OCCNC(=O)c8cc(NC(=O)c9nc(NC(=O)CCNC(=O)c%10cc(NC(=O)c%11nccn%11C)cn%10C)cn9C)cn8C)cn7C)cn6C)cn5C)cc4)cc23)c1 [Compound A-72] | – | > 1000 nM | A (A>90%) | – | – | – | > 1000 nM | –
Cc1sc2c(c1C)C(c1ccc(Cl)cc1)=N[C@@H](CC(=O)Nc1ccc(OCCOCCOCCOCCOCCOCCOCCOCCOCCOCCOCCOCCOCCOCCOCCOCCNC(=O)CCNC(=O)c3nc(NC(=O)c4cc(NC(=O)CCNC(=O)c5nc(NC(=O)OCCNC(=O)c6cc(NC(=O)c7nc(NC(=O)CCNC(=O)c8cc(NC(=O)c9nccn9C)cn8C)cn7C)cn6C)cn5C)cn4C)cn3C)cc1)c1nnc(C)n1-2 [Compound A-73] | A (A>90%) | > 1000 nM | A (A>90%) | – | – | – | > 1000 nM | –
CCS(=O)(=O)Nc1ccc(Oc2ccc(F)cc2F)c(-c2cn(C)c(=O)c3[nH]c(C(=O)Nc4ccc(OCCOCCOCCOCCOCCOCCOCCOCCOCCOCCOCCOCCOCCOCCOCCOCCNC(=O)CCNC(=O)c5nc(NC(=O)c6cc(NC(=O)CCNC(=O)c7nc(NC(=O)NCCNC(=O)c8cc(NC(=O)c9nc(NC(=O)CCNC(=O)c%10cc(NC(=O)c%11nccn%11C)cn%10C)cn9C)cn8C)cn7C)cn6C)cn5C)cc4)cc23)c1 [Compound A-74] | – | > 1000 nM | A (A>90%) | – | – | – | > 1000 nM | –
Cc1sc2c(c1C)C(c1ccc(Cl)cc1)=N[C@@H](CC(=O)Nc1ccc(OCCOCCOCCOCCOCCOCCOCCOCCOCCOCCOCCOCCOCCOCCOCCOCCNC(=O)CCNC(=O)c3nc(NC(=O)c4cc(NC(=O)CCNC(=O)c5nc(NC(=O)NCCNC(=O)c6cc(NC(=O)c7nc(NC(=O)CCNC(=O)c8cc(NC(=O)c9nccn9C)cn8C)cn7C)cn6C)cn5C)cn4C)cn3C)cc1)c1nnc(C)n1-2 [Compound A-75] | A (A>90%) | > 1000 nM | A (A>90%) | – | – | – | > 1000 nM | –
C/C=C/Cn1cc(-c2cc(OC)c(C(=O)N3CCN(CCOCCOCCOCCOCCOCCOCCOCCOCCOCCOCCOCCOCCOCCOCCOCCNC(=O)CCNC(=O)c4nc(NC(=O)c5cc(NC(=O)CCNC(=O)c6nc(NC(=O)CCCNC(=O)c7cc(NC(=O)c8nc(NC(=O)CCNC(=O)c9cc(NC(=O)c%10nccn%10C)cn9C)cn8C)cn7C)cn6C)cn5C)cn4C)CC3)cc2OC)c2cc[nH]c2c1=O [Compound A-76] | A (A>90%) | > 1000 nM | A (A>90%) | A (A>90%) | > 1000 nM | A (A>90%) | > 1000 nM | > 1000 nM

— patent US20240058460A1, “METHODS AND COMPOUNDS FOR MODULATING HUNTINGTON'S DISEASE” (Design Therapeutics, Inc., priority 2022, published 2024)
